Test results as given in patent US9260393B2, “Solid state forms of N-((S)-2,3-dihydroxy-propyl)-3-(2-fluoro-4-iodo-phenylamino)-isonicotinamide” (Merck Patent GmbH, priority 2012, dated 2016).
≈ marks a conversion by molar mass, not a printed value. Entries after “also recorded” stand apart in the source; their conditions may differ.

Columns and labels:
Format in all cases: physicochemical
[1] = Solubility determinations of HCl salt forms vs. free base (DI water, 0.1 N HCl); details: for Solubility / Solid-state Residue (X-Ray-Diffraction): 37° C., 24 hours
Procedure: (§1) All dispersions were agitated at 37° C. for 24 hours. Dispersions were then filtered via the internal filter of the Uniprep vials, and clear filtrates were analysed by HPLC for dissolved quantities of Compound C.
(§2) Solid state residues were analysed by X-Ray-Diffraction for identity with the initially used materials.

[2] = API dissolution studies in Flow-Through-Cell system; details: for dissolution in various buffer systems: 37° C., pH range 1.2 to 6.8; for % dissolved levels after 30 minutes: flow rate 16 mL/min
Procedure: Approximately 10 mg of Forms A1, A2 or B1, respectively, were accurately weighed and blended with 2 g glass beads in a Vortex mixer. The blends were then placed into a powder cell of a Flow-Through-Cell system. Dissolution studies were performed at 37° C. over 30-60 minutes at a constant flow rate of 16 mL/min. Fractions of dissolution medium after passing the Flow-Through-Cell were collected in 1 minute intervals in the first 10 minutes, in 5 minute intervals from 10-30 minutes, and in 15 minute intervals from 30-60 minutes. Dissolved levels of API in each fraction were analysed by HPLC. In dissolution experiments with HCl salt forms at pH 5.0 and pH 6.8, free base fractions which precipitated over time from the initially clear solutions in the collected dissolution fractions were re-dissolved by addition of sulphuric acid prior to HPLC analysis. All experiments were performed as triplicate preparations, with results reported as mean values from triplicates, and error bars as single standard deviations from the triplicates.

[3] = Water Vapour Sorption isotherm (25° C.), DVS-1 System; details: for water uptake at elevated RH: above 80% RH
Procedure: (§3) The DSC scan of Form A1 was acquired on a Mettler-Toledo DSC 821 with a heating rate of 5 K/min, using nitrogen purge gas at 50 mL/min. […] Form A1 can be classified as non-hygroscopic according to Ph. Eur. Criteria (section 5.11.).
The DSC scan of Form A2 was acquired on a Mettler-Toledo DSC 821 with a heating rate of 5 K/min, using nitrogen purge gas at 50 mL/min. […] Eur. Criteria (section 5.11.). […]
(§4) Eur. criteria. […] Water Vapour Sorption isotherm was acquired on a DVS-1 System from SMS. • Solubility in USP phosphate buffer (pH 7.4) at 37° C. was determined to be approx. 70 μg/mL (see Example 7).

[4] = Thermal behaviour (DSC and TGA); details: heating rate 5 K/min
Procedure: as §3
The DSC scan of Form A2 was acquired on a Mettler-Toledo DSC 821 with a heating rate of 5 K/min, using nitrogen purge gas at 50 mL/min. […] Eur. Criteria (section 5.11.).
DSC scan of Form B1 was acquired on a Mettler-Toledo DSC 821 with a heating rate of 5 K/min, using nitrogen purge gas at 50 mL/min. […] Eur. criteria.
as §4

[5] = Thermodynamic solubility of Forms B1 and B2 in USP Phosphate Buffer (pH 7.4); details: for Solid-state Residue (X-Ray-Diffraction): #1 + #2
Procedure: Approximately 17 mg of Compound C (free base) crystalline form B1 were dispersed in 2 mL USP Phosphate Buffer (pH 7.4) in Whatman Uniprep Syringless Filter vials in duplicate preparations.
Approximately 17 mg of Compound C (free base) crystalline form B2 were dispersed in 2 mL USP Phosphate Buffer (pH 7.4) in Whatman Uniprep Syringless Filter vials in duplicate preparations.
as §1, §2

[6] = Solvent-mediated competitive slurry conversion experiments with binary phase mixtures of Forms B1+B2; details: RT and 50° C.
Procedure: Approximately 10 mg of Compound C (free base) crystalline form B1 and approx. 5 mg of Compound C (free base) crystalline form B2 were dispersed in 200-1000 μL solvent in 4-mL glass vials. A PTFE-coated magnetic stirring bar was inserted into the dispersions, and the vials were tightly closed with a screw cap containing a septum. Dispersions were agitated for 5 days on a magnetic stirrer at ambient conditions (˜23° C.) and 50° C., respectively. Dispersions were then vacuum-filtrated over a Whatman paper filter, and collected filter residues were analysed by X-Ray-Diffraction for identity with the initially used materials.

[7] = 0.1N HCl, listed as HCl salt Form A1
[8] = relative humidity (RH) range 0-80% RH
[9] = USP phosphate buffer (pH 7.4), 37° C., 24 hours
[10] = 0.1N HCl, listed as HCl salt Form A2
[11] = 0.1N HCl, listed as Free Base Form B1

aqueous solubility compared to the free base [1] | solubility as compared to forms B1 and B2 [1] | Solubility ([1]; 0.1N HCl) | Solubility ([1]; DI Water) | Solid-state Residue (X-Ray-Diffraction) ([1]; Water) | dissolution kinetics as compared to forms B1 and B2 [2] | dissolution in various buffer systems [2] | hygroscopicity (classification acc. to Ph. Eur. criteria, section 5.11.) [3] | thermal stability [4] | water uptake at elevated RH [3] | water uptake levels [3, 8] | Solid-state Residue (X-Ray-Diffraction) [5, 9] | Compound | other results
– | – | – | – | – | – | – | slightly hygroscopic | sufficient | slightly enhanced | ~1 wt % | Free Base Form B1 | O=C(NC[C@H](O)CO)c1ccncc1Nc1ccc(I)cc1F [Form B2, N—((S)-2,3-Dihydroxy-propyl)-3-(2-fluoro-4-iodo-phenylamino)-isonicotinamide] | supersaturated solubility level compared to form B1 ([5]; PBS buffer pH 7.4, 37° C.): increased; Solubility ([5]; USP phosphate buffer (pH 7.4), 37° C., 24 hours, duplicate preparations #1, #2): approx. 70 μg/mL
significantly improved | higher | > 20000 µg/mL | approx. 2.5 mg/mL | Free base Form B1 | faster | rapid and complete dissolution | slightly hygroscopic | sufficient | – | – | – | O=C(NC[C@H](O)CO)c1ccncc1Nc1ccc(I)cc1F [Form A2, N—((S)-2,3-Dihydroxy-propyl)-3-(2-fluoro-4-iodo-phenylamino)-isonicotinamide] | Solid-state Residue (X-Ray-Diffraction) [1, 10]: No residue obtained; Solubility [1, 10]: >20000 µg/mL; Solubility ([1]; DI Water, listed as HCl salt Form A2): 2500 µg/mL; % dissolved levels after 30 minutes ([2]; pH 1.2, 37° C., listed as HCl Salt Form A2): 99%; % dissolved levels after 30 minutes ([2]; pH 3.0, 37° C., listed as HCl Salt Form A2): 100%; % dissolved levels after 30 minutes ([2]; pH 5.0, 37° C., listed as HCl Salt Form A2): 98%; % dissolved levels after 30 minutes ([2]; pH 6.8, 37° C., listed as HCl Salt Form A2): 96%; Water Vapour Sorption behaviour [3]: small water uptake levels only
– | – | – | – | Free base Form B1 | – | – | slightly hygroscopic | sufficient | slightly enhanced | < 1 wt % | Free Base Form B1 | O=C(NC[C@H](O)CO)c1ccncc1Nc1ccc(I)cc1F [Form B1, N—((S)-2,3-Dihydroxy-propyl)-3-(2-fluoro-4-iodo-phenylamino)-isonicotinamide] | thermodynamic stability of free base forms B1 vs B2 [6]: thermodynamically more stable free base form; also recorded: thermodynamically stable; thermodynamic stability of free base forms B1 vs B2 ([6]; listed as form B1): more stable form; Solid-state Residue (X-Ray-Diffraction) [1, 11]: HCI salt Form A1; Solubility [1, 11]: 17500 µg/mL; Solubility ([1]; DI Water, listed as Free Base Form B1): <100 µg/mL; % dissolved levels after 30 minutes ([2]; pH 1.2, 37° C., listed as Free base Form B1): 100%; % dissolved levels after 30 minutes ([2]; pH 3.0, 37° C., listed as Free base Form B1): 83%; % dissolved levels after 30 minutes ([2]; pH 5.0, 37° C., listed as Free base Form B1): 57%; % dissolved levels after 30 minutes ([2]; pH 6.8, 37° C., listed as Free base Form B1): 52%; solubility at 24 h ([5]; USP phosphate buffer, 37 °C, pH 7.4, aqueous buffer, thermodynamic from solid, USP phosphate buffer (pH 7.4), 24 hours, duplicate preparations #1, #2): ~50 µg/mL (≈ 116 µM)

Compound | aqueous solubility compared to the free base [1] | solubility as compared to forms B1 and B2 [1] | Solubility ([1]; 0.1N HCl) | Solubility ([1]; DI Water) | Solid-state Residue (X-Ray-Diffraction) ([1]; Water) | dissolution kinetics as compared to forms B1 and B2 [2] | dissolution in various buffer systems [2] | hygroscopicity (classification acc. to Ph. Eur. criteria, section 5.11.) [3] | thermal stability [4] | water uptake at elevated RH [3] | water uptake levels [3, 8] | Solid-state Residue (X-Ray-Diffraction) [5, 9] | other results
O=C(NC[C@H](O)CO)c1ccncc1Nc1ccc(I)cc1F [Form A1, N—((S)-2,3-Dihydroxy-propyl)-3-(2-fluoro-4-iodo-phenylamino)-isonicotinamide] | significantly improved | higher | approx. 44 mg/mL | approx. 2.8 mg/mL | Free base Form B1 | faster | rapid and complete dissolution | non-hygroscopic; also recorded: slightly hygroscopic | sufficient | – | – | – | Solid-state Residue (X-Ray-Diffraction) [1, 7]: HCl salt Form A1; Solubility [1, 7]: 43600 µg/mL; Solubility ([1]; DI Water, listed as HCl salt Form A1): 2800 µg/mL; % dissolved levels after 30 minutes ([2]; pH 1.2, 37° C., listed as HCl Salt Form A1): 100%; % dissolved levels after 30 minutes ([2]; pH 3.0, 37° C., listed as HCl Salt Form A1): 100%; % dissolved levels after 30 minutes ([2]; pH 5.0, 37° C., listed as HCl Salt Form A1): 97%; % dissolved levels after 30 minutes ([2]; pH 6.8, 37° C., listed as HCl Salt Form A1): 96%; water uptake levels ([3]; entire relative humidity range 0-98% RH): < 0.1 wt %
